# Laboratory results as given in article PMC8920929 (The Journal of Biological Chemistry, 2022).
# What was measured:
# TRPV3-L508A = target: T1, TRPV3-L508A (Homo sapiens, UniProt Q8NET8, L508A); test: Whole-cell and single-channel recordings of the TRPV3-L508A mutant; format: cell-based; settings: carvacrol 0.3-3.0 mM or 50 μM 2-APB
# T1 sequence (Q8NET8 1-790 L508A): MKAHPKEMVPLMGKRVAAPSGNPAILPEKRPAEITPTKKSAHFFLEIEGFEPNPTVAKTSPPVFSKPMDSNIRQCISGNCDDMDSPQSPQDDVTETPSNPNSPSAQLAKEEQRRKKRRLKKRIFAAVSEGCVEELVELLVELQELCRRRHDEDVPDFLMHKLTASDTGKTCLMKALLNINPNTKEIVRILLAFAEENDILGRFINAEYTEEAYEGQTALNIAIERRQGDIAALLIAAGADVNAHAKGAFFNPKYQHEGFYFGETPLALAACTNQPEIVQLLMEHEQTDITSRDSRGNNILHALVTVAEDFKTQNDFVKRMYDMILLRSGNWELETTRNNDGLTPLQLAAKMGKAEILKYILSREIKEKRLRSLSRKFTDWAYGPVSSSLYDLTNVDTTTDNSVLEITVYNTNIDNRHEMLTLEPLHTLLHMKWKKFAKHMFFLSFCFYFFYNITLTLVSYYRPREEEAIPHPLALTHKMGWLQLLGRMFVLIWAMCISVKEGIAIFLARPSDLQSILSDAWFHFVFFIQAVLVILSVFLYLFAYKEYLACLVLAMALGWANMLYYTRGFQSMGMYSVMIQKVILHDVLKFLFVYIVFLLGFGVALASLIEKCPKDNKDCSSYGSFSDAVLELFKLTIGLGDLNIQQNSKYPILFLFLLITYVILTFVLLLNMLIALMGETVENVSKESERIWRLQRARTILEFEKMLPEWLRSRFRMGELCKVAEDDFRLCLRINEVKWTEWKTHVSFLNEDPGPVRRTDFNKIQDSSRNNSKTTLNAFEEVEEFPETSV
# TRPV3 = settings: read-out: EC50, activation of TRPV3; ref [23], [30]; cited from earlier work
structure (smiles),measurement,setting,value
"Cc1ccc(C(C)C)cc1O [carvacrol, 5-Isopropyl-2-methylphenol]",activation of TRPV3 L508A mutant channel,TRPV3-L508A,loss of the mutant channel activation
same,EC50,TRPV3,497 ± 70 µM
